Patent US9695155B2, “Herbicidal substituted pyrimidinyloxy benzene compounds” (E. I. DU PONT DE NEMOURS AND COMPANY, priority 2013, dated 2017)

Tests used:
spring barley = assay: Test D postemergence; type: in vivo, Hordeum vulgare; conditions: Hordeum vulgare, post-emergence, Postemergence, scale 0 to 100 (0 no effect, 100 complete control), read-out: Plant response rating, Barley, Spring
Source text: (§1) Seeds of plant species selected from bluegrass (annual bluegrass, Poa annua), blackgrass (Alopecurus myosuroides), canarygrass (littleseed canarygrass, Phalaris minor), chickweed (common chickweed, Stellaria media), galium (catchweed bedstraw, Galium aparine), bromegrass, downy (downy bromegrass, Bromus tectorum), field poppy (Papaver rhoeas), field violet (Viola arvensis), green foxtail (Setaria viridis), deadnettle (henbit deadnettle, Lamium amplexicaule), Italian ryegrass (Lolium multiflorum), kochia (Kochia scoparia), lambsquarters (Chenopodium album), oilseed rape (Brassica napus), pigweed (Amaranthus retroflexus), chamomile (scentless chamomile, Matricaria inodora), Russian thistle (Salsola kali), speedwell (bird's-eye speedwell, Veronica persica), spring barley (Hordeum vulgare), spring wheat (Triticum aestivum), wild buckwheat (Polygonum convolvulus), wild mustard (Sinapis arvensis), wild oat (Avena fatua), wild radish (Raphanus raphanistrum), windgrass (Apera spica-venti), winter barley (Hordeum vulgare), and winter wheat (Triticum aestivum) were planted into a silt loam soil and treated preemergence with test chemicals formulated in a non-phytotoxic solvent mixture which included a surfactant.
(§2) At the same time, these species were planted in pots containing Redi-Earth® planting medium (Scotts Company, 14111 Scottslawn Road, Marysville, Ohio 43041) comprising spaghnum peat moss, vermiculite, wetting agent and starter nutrients and treated with postemergence applications of the test chemicals formulated in the same manner. Plants ranged in height from 2 to 18 cm (1- to 4-leaf stage). Treated plants and controls were maintained in a controlled growth environment for 7 to 21 days after which time all species were compared to controls and visually evaluated. Plant response ratings, summarized in Table D, are based on a scale of 0 to 100 where 0 is no effect and 100 is complete control. A dash (-) response means no test result.

winter barley = assay: Test D postemergence; type: in vivo, Hordeum vulgare; conditions: Hordeum vulgare, post-emergence, Postemergence, scale 0 to 100 (0 no effect, 100 complete control), read-out: Plant response rating, Barley, Winter
Source text: as §1, §2

kochia = assay: Test D preemergence; type: in vivo, Kochia scoparia; conditions: Bassia scoparia, pre-emergence, scale 0-100, read-out: Plant response rating, Kochia
Source text: as §1, §2

speedwell = assay: Test D postemergence; type: in vivo, Veronica persica; conditions: Veronica persica, post-emergence, scale 0 to 100 (0 no effect, 100 complete control), read-out: Plant response rating, Speedwell
Source text: as §1, §2

chickweed = assay: Test D preemergence; type: in vivo, Stellaria media; conditions: Stellaria media, pre-emergence, scale 0-100, read-out: Plant response rating, Chickweed
Source text: as §1, §2

galium = assay: Test D preemergence; type: in vivo, Galium aparine; conditions: Galium, pre-emergence, scale 0-100, read-out: Plant response rating, Galium
Source text: as §1, §2

chamomile = assay: Test D preemergence; type: in vivo, Matricaria inodora; conditions: Tripleurospermum inodorum, pre-emergence, scale 0-100, read-out: Plant response rating, Chamomile
Source text: as §1, §2

wild radish = assay: Test D postemergence; type: in vivo, Raphanus raphanistrum; conditions: Raphanus raphanistrum, post-emergence, scale 0 to 100 (0 no effect, 100 complete control), read-out: Plant response rating, Radish, Wild
Source text: as §1, §2

green foxtail [1] = assay: Test D postemergence; type: in vivo, Setaria viridis; conditions: Setaria viridis, post-emergence, scale 0 to 100 (0 no effect, 100 complete control), read-out: Plant response rating, Foxtail, Green
Source text: as §1, §2

green foxtail [2] = assay: Test D preemergence; type: in vivo, Setaria viridis; conditions: Setaria viridis, pre-emergence, scale 0-100, read-out: Plant response rating, Foxtail, Green
Source text: as §1, §2

canarygrass = assay: Test D preemergence; type: in vivo, Phalaris minor; conditions: Phalaris minor, pre-emergence, scale 0-100, read-out: Plant response rating, Canarygrass
Source text: as §1, §2

Italian ryegrass = assay: Test D preemergence; type: in vivo, Lolium multiflorum; conditions: Lolium multiflorum, pre-emergence
Source text: as §1, §2

Work on `N#Cc1cccc(Oc2ncc(Cl)cn2)c1-n1cc(Br)cn1` [Compound 52, 2-(4-bromo-1H-pyrazol-1-yl)-3-[(5-chloro-2-pyrimidinyl)oxy]benzonitrile] yielded a plant injury at 31 g/ha (spring barley; 31 g ai/ha) of 10%, a plant injury at 62 g/ha (spring barley; 62 g ai/ha) of 15% and a plant injury at 125 g/ha (spring barley; 125 g ai/ha) of 15%. The plant injury at 250 g/ha (spring barley; 250 g ai/ha) was 20%, the plant injury at 31 g/ha (winter barley; 31 g ai/ha) was 10% and the plant injury at 62 g/ha (winter barley; 62 g ai/ha) was 10%. The plant injury at 125 g/ha (winter barley; 125 g ai/ha) was 15%, the plant injury at 250 g/ha (winter barley; 250 g ai/ha) was 20% and the pest or weed control at 31 g/ha (kochia; 31 g ai/ha) was 95%. The pest or weed control at 62 g/ha (kochia; 62 g ai/ha) was 95%, the pest or weed control at 125 g/ha (kochia; 125 g ai/ha) was 95% and the pest or weed control at 250 g/ha (kochia; 250 g ai/ha) was 95%. For the same compound, the pest or weed control at 31 g/ha (speedwell; 31 g ai/ha) was 70%, the pest or weed control at 62 g/ha (speedwell; 62 g ai/ha) was 95% and the pest or weed control at 125 g/ha (speedwell; 125 g ai/ha) was 100%. The pest or weed control at 250 g/ha (speedwell; 250 g ai/ha) was 100%, the pest or weed control at 31 g/ha (chickweed; 31 g ai/ha) was 100% and the pest or weed control at 62 g/ha (chickweed; 62 g ai/ha) was 100%. It also gave a pest or weed control at 125 g/ha (chickweed; 125 g ai/ha) of 100%, a pest or weed control at 250 g/ha (chickweed; 250 g ai/ha) of 100% and a pest or weed control at 31 g/ha (galium; 31 g ai/ha) of 10%. The pest or weed control at 62 g/ha (galium; 62 g ai/ha) was 20%, the pest or weed control at 125 g/ha (galium; 125 g ai/ha) was 75% and the pest or weed control at 250 g/ha (galium; 250 g ai/ha) was 70%. For the same compound, the pest or weed control at 31 g/ha (chamomile; 31 g ai/ha) was 15%, the pest or weed control at 62 g/ha (chamomile; 62 g ai/ha) was 65% and the pest or weed control at 125 g/ha (chamomile; 125 g ai/ha) was 60%. For the same compound, the pest or weed control at 250 g/ha (chamomile; 250 g ai/ha) was 80%, the pest or weed control at 31 g/ha (wild radish; 31 g ai/ha) was 65% and the pest or weed control at 62 g/ha (wild radish; 62 g ai/ha) was 70%. It also gave a pest or weed control at 125 g/ha (wild radish; 125 g ai/ha) of 80%, a pest or weed control at 250 g/ha (wild radish; 250 g ai/ha) of 90% and a pest or weed control at 31 g/ha (green foxtail [1]; 31 g ai/ha) of 15%. The pest or weed control at 62 g/ha (green foxtail [1]; 62 g ai/ha) was 20%, the pest or weed control at 125 g/ha (green foxtail [1]; 125 g ai/ha) was 40% and the pest or weed control at 250 g/ha (green foxtail [1]; 250 g ai/ha) was 75%. The pest or weed control at 31 g/ha (green foxtail [2]; 31 g ai/ha) was 20%, the pest or weed control at 62 g/ha (green foxtail [2]; 62 g ai/ha) was 60% and the pest or weed control at 125 g/ha (green foxtail [2]; 125 g ai/ha) was 100%. The pest or weed control at 250 g/ha (green foxtail [2]; 250 g ai/ha) was 100%, the pest or weed control at 31 g/ha (canarygrass; 31 g ai/ha) was 0% and the pest or weed control at 62 g/ha (canarygrass; 62 g ai/ha) was 0%. It also gave a pest or weed control at 125 g/ha (canarygrass; 125 g ai/ha) of 35%, a pest or weed control at 250 g/ha (canarygrass; 250 g ai/ha) of 55% and a pest or weed control at 31 g/ha (Italian ryegrass; 31 g ai/ha, scale 0 (no effect) to 100 (complete control), read-out: Plant response rating, Ryegrass, Italian) of 0%. It also gave a pest or weed control at 62 g/ha (Italian ryegrass; 62 g ai/ha, scale 0-100, read-out: Plant response rating, Ryegrass, Italian) of 0%, a pest or weed control at 125 g/ha (Italian ryegrass; 125 g ai/ha, scale 0-100, read-out: Plant response rating, Ryegrass, Italian) of 5% and a pest or weed control at 250 g/ha (Italian ryegrass; 250 g ai/ha, scale 0-100, read-out: Plant response rating, Ryegrass, Italian) of 50%.
